The values that follow come from PubChem BioAssay (NCI).

Test systems include MCF7 breast; A498 renal; MOLT-4 leukemia; SNB-19 CNS; UO-31 renal; HCT-116 colon; NCI-H226 lung; BT-549 breast; UACC-257 melanoma; NCI-H522 lung.
What all share (test): NCI tumour cell line growth inhibition, 48 h

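Following 48 hours of exposure in 96-well plates, responses at five concentrations were used to interpolate endpoints linearly. At the GI50, growth is halved. Definition used: TGI = concentration required for complete inhibition of growth.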

For the compound `CSc1cnn(CCC#N)c(=O)n1`, the TGI in the assay on MCF7 breast, with A498 renal, with MOLT-4 leukemia, with SNB-19 CNS, in the assay on UO-31 renal and with HCT-116 colon was over 100 µM in each case. Also, the TGI with NCI-H226 lung, in the assay on BT-549 breast, in the assay on UACC-257 melanoma and in the assay on NCI-H522 lung was over 100 µM in each case.

Take `NC(CSC(c1ccccc1)(c1ccccc1)c1ccc(Cl)cc1)C(=O)O` (stereo unspecified): the GI50 with MCF7 breast is 0.0647 µM; in the assay on A498 renal, 0.746 µM; in the assay with MOLT-4 leukemia, 1.66 µM; in the assay with SNB-19 CNS it was 0.569 µM; in the assay with UO-31 renal it was 6.13 µM; in the assay on HCT-116 colon, 0.0476 µM. Also, the GI50 with NCI-H226 lung was 5.11 µM; with BT-549 breast, 0.324 µM; with UACC-257 melanoma, 3.87 µM; in the assay on NCI-H522 lung, 0.128 µM. The TGI with MCF7 breast is 18.9 µM; in the assay on A498 renal, 48.8 µM; with MOLT-4 leukemia, 53.3 µM; in the assay with SNB-19 CNS, 33.2 µM; in the assay with UO-31 renal, over 83.4 µM; with HCT-116 colon, 11.2 µM. In addition, the TGI is 49 µM in the assay with NCI-H226 lung, 15.8 µM in the assay on BT-549 breast, over 78.7 µM with UACC-257 melanoma and 3.71 µM in the assay on NCI-H522 lung.

As to `Cc1ccc(NC(=O)NC(=O)c2ccc([N+](=O)[O-])cc2[N+](=O)[O-])cc1Oc1ncc(Cl)cn1`, the TGI with MCF7 breast worked out at 20.5 µM; with A498 renal it was 22.2 µM; in the assay with MOLT-4 leukemia, 49.8 µM; in the assay on SNB-19 CNS, 21.4 µM; with UO-31 renal, 17.3 µM; with HCT-116 colon, 4.78 µM. Further, the TGI worked out at 2.53 µM with NCI-H226 lung, 32.7 µM in the assay on BT-549 breast, 16.9 µM with UACC-257 melanoma and 0.603 µM in the assay with NCI-H522 lung.

For `C=C1C[C@](OC)([C@H](O)C(=O)N[C@@H](OC)[C@@H]2C[C@@H](O)C(C)(C)[C@@H](C[C@@H](COC)OC)O2)O[C@H](C)[C@@H]1C`, the TGI in the assay with MCF7 breast is 0.00145 µM; with A498 renal, 0.00288 µM; in the assay on MOLT-4 leukemia, over 1 µM; in the assay on SNB-19 CNS, 0.00645 µM; in the assay with UO-31 renal, 0.0295 µM; in the assay on HCT-116 colon it was 0.0104 µM. The TGI with NCI-H226 lung is 0.00582 µM; with BT-549 breast, 0.00326 µM; in the assay with UACC-257 melanoma, 0.00885 µM; with NCI-H522 lung, 0.00725 µM. For the same compound, the GI50 with A498 renal was 0.00104 µM; in the assay on MOLT-4 leukemia, 0.00437 µM; in the assay on SNB-19 CNS, 0.00149 µM; in the assay on UO-31 renal, 0.00267 µM; in the assay with HCT-116 colon, 0.00168 µM; in the assay on NCI-H226 lung it was 0.00202 µM. The GI50 in the assay with BT-549 breast was 0.00118 µM; with UACC-257 melanoma, 0.00211 µM; in the assay on NCI-H522 lung, 0.00194 µM.

For the compound `CCCCCCCCCCCCCCCCCC1=NCCN1CS(=O)(=O)O`, the GI50 was 13.4 µM in the assay with MCF7 breast; 14.8 µM in the assay with A498 renal; 10.2 µM with MOLT-4 leukemia; 17.9 µM in the assay with SNB-19 CNS; 6.28 µM in the assay on UO-31 renal; 10.4 µM in the assay on HCT-116 colon. Besides, the GI50 was 17.4 µM in the assay on NCI-H226 lung, 19.5 µM in the assay on BT-549 breast, 17.1 µM with UACC-257 melanoma and 24.5 µM with NCI-H522 lung. Moreover, the TGI amounted to 35.2 µM in the assay with MCF7 breast; 31 µM in the assay with A498 renal; 38.6 µM in the assay on MOLT-4 leukemia; 40.9 µM in the assay with SNB-19 CNS; 23 µM in the assay with UO-31 renal; 30.3 µM with HCT-116 colon. In addition, the TGI in the assay on NCI-H226 lung came out at 40.1 µM; in the assay with BT-549 breast, 37.7 µM; in the assay on UACC-257 melanoma, 33.9 µM; in the assay with NCI-H522 lung, 54 µM.

Take `COc1ccccc1-n1c(-c2cc(O)ccc2C)cn2c3c(=O)[nH]c(=O)n(C)c3nc12`: the GI50 in the assay on MCF7 breast was over 100 µM; in the assay on A498 renal it was 25 µM; in the assay with MOLT-4 leukemia, 85.9 µM; in the assay on SNB-19 CNS, over 100 µM; in the assay on UO-31 renal it was 9.33 µM; in the assay on HCT-116 colon it was 21.1 µM. The GI50 in the assay on NCI-H226 lung is 78.7 µM; in the assay on BT-549 breast, 20.5 µM; in the assay on UACC-257 melanoma, over 100 µM; in the assay on NCI-H522 lung, 1.79 µM. In addition, the TGI in the assay on MCF7 breast, with A498 renal, with MOLT-4 leukemia, with SNB-19 CNS, in the assay on UO-31 renal and with HCT-116 colon was over 100 µM each time. In addition, the TGI in the assay with NCI-H226 lung, in the assay with BT-549 breast, in the assay with UACC-257 melanoma and in the assay on NCI-H522 lung was over 100 µM in each case.

For the compound `O=C(O)C1C(C(=O)Nc2ccc3c(c2)Cc2ccccc2-3)C2(Cl)C(Cl)=C(Cl)C1(Cl)C2(Cl)Cl` (stereo unspecified), the TGI was 62.2 µM with MCF7 breast; 47.7 µM in the assay with A498 renal; 26.1 µM with MOLT-4 leukemia; over 100 µM in the assay on SNB-19 CNS; 55.5 µM in the assay with UO-31 renal; 38.1 µM in the assay with HCT-116 colon. For the same compound, the TGI in the assay on NCI-H226 lung is 88 µM; in the assay with BT-549 breast, 39.2 µM; in the assay on UACC-257 melanoma it was 48.2 µM; with NCI-H522 lung, 39.2 µM.

In the case of `CC(C)C1OC(=O)C=C1Sc1ccccc1` (stereo unspecified), the TGI with MCF7 breast, in the assay with A498 renal, in the assay with MOLT-4 leukemia, in the assay on SNB-19 CNS, in the assay on HCT-116 colon and in the assay with NCI-H226 lung was over 100 µM each time. Moreover, the TGI in the assay with BT-549 breast, in the assay on UACC-257 melanoma and with NCI-H522 lung was over 100 µM in each case.

Take `COC(=O)c1ccc2c(c1)nc(-c1cc3ccccc3[nH]c1=O)n2-c1cc(C(C)(C)C)[nH]n1`: the GI50 is over 100 µM in the assay with MCF7 breast; 3.99 µM with A498 renal; 0.793 µM with MOLT-4 leukemia; 7.59 µM in the assay with SNB-19 CNS; 0.526 µM with UO-31 renal; 1.74 µM in the assay with HCT-116 colon. Also, the figures for the GI50 in the assay with NCI-H226 lung, in the assay with BT-549 breast and with NCI-H522 lung were 16.5 µM, 4.88 µM and 1.19 µM, respectively. For the same compound, the TGI is over 100 µM in the assay on MCF7 breast; over 87.7 µM with A498 renal; over 100 µM with MOLT-4 leukemia; over 100 µM with SNB-19 CNS; over 100 µM in the assay on UO-31 renal; over 100 µM in the assay on HCT-116 colon. Moreover, the TGI is over 100 µM with NCI-H226 lung, 66.2 µM in the assay on BT-549 breast and over 100 µM in the assay on NCI-H522 lung.
